From DBAASP
Values after ≈ are worked out from the molar mass of the structure shown. One block for each compound: values may come before it.

Assays:
Test in all cases: ≥ marks a high value that may be exact or a test limit, other limits are often not marked, values filed in µg/mL are converted to µM
[1] = tested on: Streptococcus pneumoniae BCRC 10794
[2] = tested on: Staphylococcus aureus BCRC 10780
[3] = tested on: Bacillus subtilis ATCC 23858
[4] = tested on: Bacillus cereus ATCC 14579
[5] = tested on: Listeria monocytogenes ATCC 7644
[6] = tested on: Staphylococcus aureus ATCC 33591
[7] = tested on: Salmonella enterica subsp. enterica serovar Typhimurium ATCC 14028
[8] = tested on: Klebsiella pneumoniae ATCC 13883
[9] = tested on: Bacillus subtilis
[10] = tested on: Streptococcus pyogenes ATCC 19615
[11] = tested on: Pseudomonas aeruginosa ATCC 27853
[12] = tested on: Escherichia coli
[13] = tested on: Enterococcus faecalis ATCC 29212
[14] = tested on: Staphylococcus aureus ATCC 25923
[15] = tested on: Xanthomonas campestris pv. Vesicatoria 2133-2
[16] = tested on: Erwinia amylovora PMV 6076
[17] = tested on: Pseudomonas syringae pv. syringae EPS 94
[18] = tested on: Escherichia coli ATCC 25922
[19] = tested on: Staphylococcus aureus ATCC 29313
[20] = tested on: Xanthomonas axonopodis pv. glycines ISBF 327
[21] = tested on: Cryptococcus neoformans L30
[22] = tested on: Candida albicans 38U
[23] = tested on: Trichophyton mentagrophytes
[24] = tested on: Candida albicans 01U
[25] = tested on: Trichophyton rubrum
[26] = tested on: Cryptococcus neoformans L26
[27] = tested on: Candida parapsilosis
[28] = tested on: Listeria monocytogenes ATCC 35152
[29] = tested on: Staphylococcus aureus ATCC 25023
[30] = tested on: Staphylococcus epidermidis CICC 23664
[31] = tested on: Escherichia coli AS1.349
[32] = tested on: Staphylococcus aureus AS1.72
[33] = tested on: Pseudomonas aeruginosa 0108
[34] = tested on: Proteus mirabilis CICC 22931
[35] = tested on: Pseudomonas aeruginosa CGMCC 1.860
[36] = tested on: Enterococcus faecium CGMCC 1.2334
[37] = tested on: Enterococcus faecalis CGMCC 1.595
[38] = tested on: Bacillus cereus AS1.126
[39] = tested on: Klebsiella pneumoniae subsp. pneumoniae CGMCC 1.176
[40] = tested on: Enterobacter cloacae CGMCC 1.58
[41] = tested on: Staphylococcus epidermidis

Structure (SMILES): CC[C@H](C)[C@H](NC(=O)[C@H](CCSC)NC(C)=O)C(=O)N[C@@H](Cc1cnc[nH]1)C(=O)NCC(=O)N[C@@H](CC(C)C)C(=O)N[C@H](C(=O)N[C@H](C(=O)N[C@@H](CCCN=C(N)N)C(=O)N[C@@H](CCCN=C(N)N)C(N)=O)[C@@H](C)O)C(C)C [MIHGLVTRR]
MIC [1]: ≥ 92.4 µM | MIC [2]: ≥ 92.4 µM

Structure (SMILES): CC[C@H](C)[C@H](NC(=O)[C@H](CC(C)C)NC(=O)[C@@H]1CCCN1C(=O)[C@H](CC(C)C)NC(=O)[C@@H](N)Cc1ccccc1)C(=O)N[C@@H](CC(C)C)C(=O)N1CCC[C@H]1C(=O)N[C@@H](CO)C(=O)N[C@H](C(=O)N[C@H](C(=O)N[C@H](C(=O)N[C@@H](C)C(=O)N[C@@H](CC(C)C)C(=O)N[C@@H](CO)C(=O)N[C@@H](CO)C(=O)N[C@@H](Cc1ccccc1)C(=O)N[C@@H](CC(C)C)C(=O)N[C@@H](CCCCN)C(=O)N[C@@H](CCC(N)=O)C(=O)NCC(=O)O)[C@@H](C)O)C(C)C)[C@@H](C)CC [FLPLILPSIVTALSSFLKQG]
MIC [3]: 23.3 µM (≈ 50 µg/mL) | MIC [4]: 23.3 µM (≈ 50 µg/mL) | MIC [5]: ≥ 46.6 µM | MIC [6]: 11.7 µM (≈ 25.1 µg/mL)

Structure (SMILES): CC[C@H](C)[C@H](NC(=O)[C@@H]1CCCN1C(=O)[C@H](CC(C)C)NC(=O)[C@@H](N)CC(C)C)C(=O)N[C@H](C(=O)NCC(=O)N[C@@H](CC(N)=O)C(=O)N[C@@H](CC(C)C)C(=O)N[C@@H](CC(C)C)C(=O)N[C@@H](CCCCN)C(=O)N[C@@H](CO)C(=O)N[C@@H](CC(C)C)C(=O)N[C@@H](CC(C)C)C(=O)NCC(=O)N[C@@H](Cc1c[nH]c2ccccc12)C(=O)N[C@@H](CCCCN)C(=O)N[C@@H](CCCN=C(N)N)C(=O)N[C@@H](CCCCN)C(=O)N[C@@H](C)C(=O)N[C@@H](Cc1ccccc1)C(=O)NCC(N)=O)C(C)C [LLPIVGNLLKSLLGWKRKAFG]
MIC [7]: > 200 µM | MIC [8]: ≥ 200 µM | MIC [9]: ≥ 50 µM | MIC [10]: ≥ 100 µM | MIC [11]: 200 µM (≈ 465 µg/mL) | MIC [12]: 100 µM (≈ 232 µg/mL) | MIC [13]: 100 µM (≈ 232 µg/mL) | MIC [14]: 50 µM (≈ 116 µg/mL)

Structure (SMILES): CC[C@H](C)[C@H](NC(=O)[C@H](CCCCN)NC(=O)[C@H](CCCCN)NC(=O)[C@H](Cc1ccccc1)NC(=O)[C@H](CC(C)C)NC(=O)[C@H](CCCCN)NC(=O)[C@H](CCCCN)NC(=O)[C@H](C)NC(=O)[C@@H]1CCCN1C(=O)CNC(=O)[C@H](C)NC(=O)[C@H](CC(C)C)NC(=O)[C@H](Cc1ccc(O)cc1)NC(=O)[C@H](CCCCN)NC(=O)[C@H](CC(C)C)NC(=O)[C@@H](NC(=O)[C@H](CCCCN)NC(=O)[C@H](CCCCN)NC(=O)[C@H](Cc1ccccc1)NC(=O)[C@H](CC(C)C)NC(=O)[C@H](CCCCN)NC(=O)[C@H](CCCCN)NC(=O)[C@@H](N)CO)[C@@H](C)CC)C(=O)N[C@@H](CC(C)C)C(=O)N[C@@H](CCCCN)C(=O)N[C@@H](Cc1ccc(O)cc1)C(=O)N[C@@H](CC(C)C)C(=O)O [SKKLFKKILKYLAGPAKKLFKKILKYL]
MIC [15]: 14.1 µM (≈ 45.4 µg/mL) | MIC [16]: 14.1 µM (≈ 45.4 µg/mL) | MIC [17]: 8.66 µM (≈ 27.8 µg/mL)

Structure (SMILES): CC[C@H](C)[C@H](NC(=O)[C@@H](NC(=O)[C@H](CCCCN)NC(=O)[C@H](CCCCN)NC(=O)[C@H](CC(C)C)NC(=O)[C@@H](NC(=O)[C@H](CC(N)=O)NC(=O)[C@H](CC(C)C)NC(=O)CN)[C@@H](C)O)C(C)C)C(=O)N[C@@H](CCC(N)=O)C(=O)NCC(=O)N[C@@H](CC(C)C)C(=O)N[C@@H](Cc1cnc[nH]1)C(=O)N[C@@H](CCC(=O)O)C(=O)N[C@H](C(=O)N[C@H](C(=O)N[C@@H](CCCCN)C(=O)N[C@@H](CC(C)C)C(=O)N[C@H](C(=O)N[C@@H](CC(N)=O)C(=O)N[C@@H](CC(N)=O)C(=O)N[C@@H](Cc1cnc[nH]1)C(=O)N[C@@H](C)C(N)=O)C(C)C)[C@@H](C)CC)C(C)C [GLNTLKKVIQGLHEVIKLVNNHA]
MIC [18]: 6 µM (≈ 15.2 µg/mL) | MIC [19]: 6 µM (≈ 15.2 µg/mL) | MIC [11]: 50 µM (≈ 127 µg/mL) | MIC [20]: 2 µM (≈ 5.08 µg/mL)

Now from value to compound:

MIC [21]: ≥ 173 µM | MIC [22]: ≥ 43.1 µM | MIC [23]: ≥ 173 µM | MIC [24]: ≥ 86.3 µM | MIC [25]: ≥ 86.3 µM | MIC [26]: ≥ 173 µM | MIC [27]: ≥ 173 µM
Structure (SMILES): CC[C@H](C)[C@H](NC(=O)[C@H](CC(C)C)NC(=O)[C@H](CCC(=O)O)NC(=O)[C@H](CO)NC(=O)[C@H](CCCN=C(N)N)NC(=O)[C@@H](N)CO)C(=O)N[C@H](C(=O)N[C@@H](Cc1cnc[nH]1)C(=O)N[C@@H](CCC(N)=O)C(=O)N[C@@H](CCCN=C(N)N)C(=O)N[C@@H](CCCN=C(N)N)C(=O)N[C@@H](CS)C(N)=O)C(C)C [SRSELIVHQRRC]

MIC [18]: 26.5 µM (≈ 40 µg/mL) | MIC [8]: 19.9 µM (≈ 30 µg/mL) | MIC [28]: 26.5 µM (≈ 40 µg/mL) | MIC [11]: 39.8 µM (≈ 60 µg/mL) | MIC [14]: 16.6 µM (≈ 25 µg/mL)
Structure (SMILES): CSCC[C@H](NC(=O)[C@H](CCCCN)NC(=O)[C@H](CCCCN)NC(=O)[C@H](CC(N)=O)NC(=O)[C@H](CCCN=C(N)N)NC(=O)[C@H](CS)NC(=O)[C@H](CCCCN)NC(=O)[C@@H](N)CCCCN)C(=O)N[C@@H](CCC(=O)O)C(=O)N[C@H](C(=O)N[C@@H](CO)C(=O)N[C@@H](CCCN=C(N)N)C(N)=O)C(C)C [KKCRNKKMEVSR]

MIC [29]: 6.4 µM (≈ 7.99 µg/mL)
Structure (SMILES): CC(C)C[C@H](NC(=O)[C@H](CCCN=C(N)N)NC(=O)[C@H](CC(C)C)NC(=O)[C@H](CC(C)C)NC(=O)[C@H](CC(C)C)NC(=O)[C@H](CC(C)C)NC(=O)[C@H](CC(C)C)NC(=O)[C@H](CCCCN)NC(=O)[C@H](CC(C)C)NC(=O)[C@@H](N)CCCN=C(N)N)C(N)=O [RLKLLLLLRL]

MIC [30]: 1.56 µM (≈ 2.65 µg/mL) | MIC [31]: 3.13 µM (≈ 5.32 µg/mL) | MIC [32]: 1.56 µM (≈ 2.65 µg/mL) | MIC [33]: 12.5 µM (≈ 21.2 µg/mL) | MIC [34]: 6.25 µM (≈ 10.6 µg/mL) | MIC [35]: 3.13 µM (≈ 5.32 µg/mL) | MIC [36]: 1.56 µM (≈ 2.65 µg/mL) | MIC [37]: 0.78 µM (≈ 1.32 µg/mL) | MIC [38]: 3.13 µM (≈ 5.32 µg/mL) | MIC [39]: 25 µM (≈ 42.5 µg/mL) | MIC [40]: 0.78 µM (≈ 1.32 µg/mL) | MIC [41]: 3.12 µM (≈ 5.3 µg/mL)
Structure (SMILES): CC[C@H](C)[C@H](N)C(=O)N[C@@H](CCCCN)C(=O)N[C@@H](CCCCN)C(=O)N[C@@H](Cc1c[nH]c2ccccc12)C(=O)N[C@@H](Cc1c[nH]c2ccccc12)C(=O)N[C@@H](CO)C(=O)N[C@@H](CCCCN)C(=O)N[C@H](C(=O)N[C@@H](CCCCN)C(=O)N[C@@H](CCCCN)C(=O)N[C@@H](CC(C)C)C(=O)N[C@@H](CC(C)C)C(=O)N[C@@H](CCCCN)C(N)=O)[C@@H](C)CC [IKKWWSKIKKLLK]
